{"source": "patent US20040192554A1", "about": "“Technique for effectively treating an agricultural product with a 1-substituted-cyclopropene” (priority 2003, published 2004)", "assay_type_in_all_cases": "in vivo", "key": {"[1]": {"system": "peach (variety \"Akatsuki\") fruit", "experiment": "Quality deterioration of peach (Akatsuki) fruit after storage, Example 8", "conditions": "1 ppm, after storage 25 degrees C 5 days, treated on day of harvest", "method": "Using a peach (variety “Akatsuki”) fruit (6 fruits were used per group) as an agricultural product, the following experiment was performed.\n1) A fruit and 1-methylcyclopropene (concentration in a chamber 1 ppm) were placed into a sealed chamber, and contact-treated for 12 hours under a normal pressure.\n2) A fruit was placed into a sealed chamber, and a pressure in the chamber was reduced to 25.0 kPa. Subsequently, 1-methylcyclopropene was placed therein to the concentration in the chamber of 1 ppm, and contact-treated for 1 minute under the reduced pressure (25.0 kPa). Then, the pressure was returned to a normal pressure, and contact treatment was carried out for 12 hours while the concentration of 1-methylcyclopropene in the chamber was maintained at 1 ppm.\nThe fruit which had been subjected to treatment of the above-mentioned 1) or 2) was stored at 25 degrees C for 5 days, and hardness of flesh was measured. In addition, contact treatment of the above-mentioned 1) or 2) was performed on a day for harvesting of a fruit. In addition, also regarding a fruit undergoing no treatment of 1) or 2) (non-treatment), similar storage was performed, and the above-mentioned index was measured. Further, regarding a non-treated fruit, the above-mentioned index before storage was also measured. […]"}, "[2]": {"system": "cut flower of a carnation (variety \"Rosybabara\")", "experiment": "Withering of carnation cut flower after storage, Example 10", "conditions": "1 ppm, after storage 20 degrees C 14 days, average score of 5 plants (0=healthy)", "method": "Using a cut flower (5 ornamental plants were used per group) of a carnation (variety “Rosybabara”) as an agricultural product, the following experiment was performed. […]\n2) An ornamental plant was placed into a sealed chamber, and a pressure in the chamber was reduced to 12.5 kPa. Subsequently, 1-methylcyclopropene was placed therein to the concentration in the chamber of 1 ppm, and contact-treated for 1 minute under the reduced pressure (12.5 kPa).\n3) An ornamental plant was placed in a sealed chamber. Subsequently, a pressure in the chamber was reduced to 12.5 kPa and the ornamental plant was kept in the chamber under the reduced pressure for 1 minute.\nAn ornamental plant which had been subjected to treatment of the above-mentioned 1), 2) or 3) was stored at 20 degrees C for 14days, and an extent of withering of an ornamental plant was assessed by naked eyes. Assessment criteria were 4 stages; 0=healthy, 1=slight withering, 2=intermediate withering, […], and an average of assessment in 5 ornamental plants was calculated. Note that the treatment above-mentioned 1), 2) or 3) was performed on a day of harvesting an ornamental plant. In addition, also regarding an ornamental plant undergoing no treatment of 1), 2) or 3) (non-treatment), the similar storage was performed, and the above-mentioned index was measured."}, "[3]": {"system": "Japanese pear (variety \"Kosui\") fruit", "experiment": "Quality deterioration of Japanese pear (Kosui) fruit after storage, Example 3", "conditions": "1 ppm, after storage 25 degrees C 2 weeks", "method": "Using a Japanese pear (variety “Kosui”) fruit (6 fruits were used per group) as an agricultural product, the following experiment was performed.\n1) A fruit and 1-methylcyclopropene (concentration 1 ppm in a chamber) were placed into a sealed chamber, and contact-treated for 16 hours under a normal pressure.\n(§1) 2) A fruit was placed into a sealed chamber, and a pressure in the chamber was reduced to 25.0 kPa. Subsequently, 1-methylcyclopropene was placed therein to the concentration in the chamber of 1 ppm, and contact-treated for 1 minute under the reduced pressure (25.0 kPa).\nThe fruit which had been subjected to treatment of the above-mentioned 1) or 2) was stored at 25 degrees C for 2 weeks, and hardness of flesh and pH of a fruit juice which is an index for the content of an acid were measured. In addition, an extent of storage disorder was assessed by tasting. Contact treatment of the above-mentioned 1) or 2) was performed on a day of harvesting a fruit. In addition, also regarding a fruit undergoing no treatment of 1) or 2) (non-treatment), similar storage was performed, and the above-mentioned index was measured and assessed. Further, regarding non-treated fruit, the above-mentioned index before storage was also measured and assessed. Different alpha characters in Table 3 indicate that a significant difference was recognized at a risk rate of 5% (multiple range test of Newman-Keuls)."}, "[4]": {"system": "apple (variety \"Sansa\") fruit", "experiment": "Quality deterioration of apple (Sansa) fruit after storage, Example 5", "conditions": "1 ppm, after storage 25 degrees C 2 weeks", "method": "Using an apple (variety “Sansa”) fruit (6 fruits were used per group) as an agricultural product, the following experiment was performed.\n1) A fruit and 1-methylcyclopropene (concentration 1 ppm in a chamber) were placed into a sealed chamber, and contact-treated for 12 hours under a normal pressure.\nas §1\nThe fruit which had been subjected to treatment of the above-mentioned 1) or 2) was stored at 25 degrees C for 2 weeks, and hardness of flesh, pH of a fruit juice which is an index for the content of an acid, and the ethylene concentration in a fruit core were measured. Contact treatment of the above-mentioned 1) or 2) was performed on the following day of harvesting a fruit. In addition, also regarding a fruit undergoing no treatment of 1) or 2) (non-treatment), similar storage was performed, and the above-mentioned index was measured. Further, regarding non-treated fruit, the above-mentioned index before storage was also measured. Different alpha characters in Table 4 indicate that a significant difference was recognized at a risk rate of 5% (multiple range test of Newman-Keuls)."}, "[5]": {"conditions": "Reduced pressure (25.0 kPa) 1 minute"}}}
{"smiles": "CC1=CC1", "note": "[1-MCP, 1-methylcyclopropene]", "values": [{"measurement": "Hardness of flesh", "setting": "[1]; Normal pressure 12 hours after reduced pressure (25.0 kPa) 1 minute", "value": 6.18, "unit": "b N"}, {"measurement": "Hardness of flesh", "setting": "[1]; Normal pressure 12 hours", "value": 2.84, "unit": "a N"}, {"measurement": "Extent of withering", "setting": "[2]; Normal pressure 1 hour", "value": 0.8}, {"measurement": "Extent of withering", "setting": "[2]; Normal pressure 24 hours", "value": 0.4}, {"measurement": "Extent of withering", "setting": "[2]; Reduced pressure (12.5 kPa) 1 minute", "value": 0.4}, {"measurement": "Hardness of flesh", "setting": "[3]; Normal pressure 16 hours", "value": 22.44, "unit": "N"}, {"measurement": "Tasting", "setting": "[3]; Normal pressure 16 hours", "value": "Better"}, {"measurement": "pH of fruit juice", "setting": "[3]; Normal pressure 16 hours", "value": 5.22, "unit": "a"}, {"measurement": "Hardness of flesh", "setting": "[3]; [5]", "value": 21.36, "unit": "N"}, {"measurement": "Tasting", "setting": "[3]; [5]", "value": "Better"}, {"measurement": "pH of fruit juice", "setting": "[3]; [5]", "value": 5.57, "unit": "b"}, {"measurement": "Ethylene concentration in fruit core", "setting": "[4]; Normal pressure 12 hours", "value": 1.86, "unit": "a μL/L"}, {"measurement": "Hardness of flesh", "setting": "[4]; Normal pressure 12 hours", "value": 61.05, "unit": "b N"}, {"measurement": "pH of fruit juice", "setting": "[4]; Normal pressure 12 hours", "value": 3.38, "unit": "a"}, {"measurement": "Ethylene concentration in fruit core", "setting": "[4]; [5]", "value": 0.97, "unit": "a μL/L"}, {"measurement": "Hardness of flesh", "setting": "[4]; [5]", "value": 63.21, "unit": "b N"}, {"measurement": "pH of fruit juice", "setting": "[4]; [5]", "value": 3.40, "unit": "a"}]}
